From patent US9751878B2, “Tetrahydronaphthyridine somatostatin receptor 5 antagonists” (Takeda Pharmaceutical Company Limited, priority 2013, dated 2017)

Key:
[1] = system: Male KK-Ay/Ta mice, a type 2 diabetes model; assay: Antidiabetic effect in mice (1); type: in vivo; conditions: 10 mg/kg orally once a day for 2 weeks; n=8
Protocol: Antidiabetic Effect in Mice (1)
(§1) Male KK-Ay/Ta mice (Clea Japan Inc.), a type 2 diabetes model, were used in this study. At the age of 7-week old, blood samples were collected from tail vein at 8:00 am, and animals were divided into separate groups (n=8) based on glycated hemoglobin (GHb), plasma glucose, insulin, triglyceride levels and body weight. Vehicle (0.5% (w/v) methylcellulose) or the compound of Example 67 (10 mg/kg) (suspended in vehicle) were orally administered once a day for 2 weeks. After 2 weeks of treatment, GHb was determined by auto-analyzer HLC-723G8 (TOSOH, Japan).

[2] = system: Male KK-Ay/Ta mice, a type 2 diabetes model; assay: Antidiabetic effect in mice (2); type: in vivo; conditions: 0.03% food admixture with CE-2 diet for 2 weeks; n=7
Protocol: Antidiabetic Effect in Mice (2)
as §1, with “(n=7)” for “(n=8)”, “The Compound of Example 35 (0.03% (weight % of” for “Vehicle (0.5% (w/v) methylcellulose) or”, “compound” for “compound of Example 67 (10 mg/kg) (suspended”, “the food admixture)) was” for “vehicle) were orally”, “by food admixture with CE-2 diet (Clea Japan Inc.)” for “once a day”

Question: With `CCCc1nc2c(cc1C(=O)O)C(=O)N(C1CCN(Cc3cc(C4CC4)c(-c4ccc(F)cc4)c(F)c3OCC)CC1)CC2` [Example 67, 6-(1-((6-Cyclopropyl-3-ethoxy-2,4′-difluorobiphenyl-4-yl)methyl)piperidin-4-yl)-5-oxo-2-propyl-5,6,7,8-tetrahydro-1,6-naphthyridine-3-carboxylic acid] as the compound, how does the “Average of delta GHb (%)” value [1] read?
Answer: 0.40%

Question: With `CCCc1nc2c(cc1C(=O)O)C(=O)N(C1CCN(Cc3cc(C4CC4)c(-c4ccc(F)cc4F)cc3OCC)CC1)CC2` [Example 35, 6-(1-((2-Cyclopropyl-5-ethoxy-2′,4′-difluorobiphenyl-4-yl)methyl)piperidin-4-yl)-5-oxo-2-propyl-5,6,7,8-tetrahydro-1,6-naphthyridine-3-carboxylic acid] as the compound, how does the “Average of delta GHb (%)” value [2] read?
Answer: 0.60%
